According to patent US20160287589A1, “SUBSTITUTED-IMIDAZOPYRIDAZINES” (BAYER PHARMA AKTIENGESELLSCHAFT, priority 2013, published 2016):

How the values were obtained:
MKNK1 [1] = target: T1, MKNK1 (Homo sapiens, UniProt Q9BUB5, T385D); assay: MKNK1 kinase assay (MKNK1 TR-FRET assay); type: biochemical; conditions: Table 1a; 10 μM ATP, 15 min preincubation
T1 construct: GST (N); purchased Carna Biosciences 02-145; host or cells: insect cells (baculovirus expression system)
Source text: MKNK1-inhibitory activity of compounds of the present invention was quantified employing the MKNK1 TR-FRET assay as described in the following paragraphs.
A recombinant fusion protein of Glutathione-S-Transferase (GST, N-terminally) and human full-lengt MKNK1 (amino acids 1-424 and T344D of accession number BAA 19885.1), expressed in insect cells using baculovirus expression system and purified via glutathione sepharose affinity chromatography, was purchased from Carna Biosciences (product no 02-145) and used as enzyme. As substrate for the kinase reaction the biotinylated peptide biotin-Ahx-IKKRKLTRRKSLKG (C-terminus in amide form) was used which can be purchased e.g. form the company Biosyntan (Berlin-Buch, Germany).
For the assay 50 nL of a 100 fold concentrated solution of the test compound in DMSO was pipetted into a black low volume 384 well microtiter plate (Greiner Bio-One, Frickenhausen, Germany), 2 μL of a solution of MKNK1 in aqueous assay buffer [50 mM HEPES pH 7.5, 5 mM magnesium chloride, 1.0 mM dithiothreitol, 0.005% (v/v) Nonidet-P40 (Sigma)] was added and the mixture was incubated for 15 min at 22° C. to allow pre-binding of the test compounds to the enzyme before the start of the kinase reaction. […] The concentration of MKNK1 was adjusted depending of the activity of the enzyme lot and was chosen appropriate to have the assay in the linear range, typical concentrations were in the range of […]. The reaction was stopped by the addition of 5 μL of a solution of TR-FRET detection reagents (5 nM streptavidine-XL665 [Cisbio Bioassays, Codolet, France] and 1 nM anti-ribosomal protein S6 (pSer236)-antibody from Invitrogen [#44921G] and 1 nM LANCE EU-W1024 labeled ProteinG [Perkin-Elmer, product no. AD0071]) in an aqueous EDTA-solution (100 mM EDTA, 0.1% (w/v) bovine serum albumin in 50 mM HEPES pH 7.5).
The resulting mixture was incubated for 1 h at 22° C. to allow the formation of complex between the phosphorylated biotinylated peptide and the detection reagents. Subsequently the amount of phosphorylated substrate was evaluated by measurement of the resonance energy transfer from the Eu-chelate to the streptavidine-XL. Therefore, the fluorescence emissions at 620 nm and 665 nm after excitation at 350 nm were measured in a TR-FRET reader, e.g. a Rubystar (BMG Labtechnologies, Offenburg, Germany) or a Viewlux (Perkin-Elmer). The ratio of the emissions at 665 nm and at […] was taken as the measure for the amount of phosphorylated substrate. The data were normalised (enzyme reaction without inhibitor=0% inhibition, all other assay components but no enzyme=100% inhibition).

MKNK1 [2] = target: T1, MKNK1; assay: MKNK1 kinase high ATP assay (TR-FRET-based); type: biochemical; conditions: Table 2a; 2 mM ATP, 15 min preincubation
Procedure, shortened: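 TR-FRET read-out (anti-phospho-S6 Ser236 antibody, Eu/XL665) of biotin-peptide phosphorylation (0.06 μM) at high ATP (2 mM final). Enzyme was GST-MKNK1 full length, T344D, pre-bound to compound for 15 min before a 30 min reaction at 22 °C, pH 7.5. Inhibition scaled between no-inhibitor (0%) and no-enzyme (100%) wells.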

T1 sequence (Q9BUB5 1-424 isoform Q9BUB5-2 T344D): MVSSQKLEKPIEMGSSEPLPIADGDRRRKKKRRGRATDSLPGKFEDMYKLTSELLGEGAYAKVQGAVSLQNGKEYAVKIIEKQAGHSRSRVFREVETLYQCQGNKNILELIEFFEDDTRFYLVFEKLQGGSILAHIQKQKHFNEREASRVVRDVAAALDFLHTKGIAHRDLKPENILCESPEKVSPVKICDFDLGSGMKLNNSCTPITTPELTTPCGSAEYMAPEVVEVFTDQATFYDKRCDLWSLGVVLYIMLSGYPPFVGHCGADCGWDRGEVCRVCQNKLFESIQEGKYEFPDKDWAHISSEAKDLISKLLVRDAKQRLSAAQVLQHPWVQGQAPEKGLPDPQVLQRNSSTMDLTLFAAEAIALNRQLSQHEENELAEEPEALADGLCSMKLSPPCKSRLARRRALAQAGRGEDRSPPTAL

IC50 (MKNK1 [1]) [nM]	IC50 (MKNK1 [2]) [nM]	SMILES
14.2	26.8	O=C1CNC[C@H](COc2ccc3ncc(-c4cc5ccccc5o4)n3n2)N1 [Example I-42, (6R)-6-({[3-(1-Benzofuran-2-yl)imidazo[1,2-b]pyridazin-6yl]oxy}methyl)-piperazin-2-one]
1	1.3	O=C(c1cccs1)N1CCC[C@H]1CCOc1ccc2ncc(-c3cc4ccccc4o3)n2n1 [Example I-43, [(2S)-2-(2-{[3-(1-Benzofuran-2-yl)imidazo[1,2-b]pyridazin-6-yl]oxy}ethyl)pyrrolidin-1-yl](thiophen-2-yl)methanone]
1.1	1.7	CCC(=O)N1CCC[C@H]1CCOc1ccc2ncc(-c3cc4ccccc4o3)n2n1 [Example I-44, 1-[(2S)-2-(2-{[3-(1-Benzofuran-2-yl)imidazo[1,2-b]-pyridazin-6-yl]oxy}ethyl)pyrrolidin-1-yl]propan-1-one]
1.3	1.8	O=C(c1cnoc1)N1CCC[C@H]1CCOc1ccc2ncc(-c3cc4ccccc4o3)n2n1 [Example I-45, [(2S)-2-(2-{[3-(1-Benzofuran-2-yl)imidazo[1,2-b]-pyridazin-6-yl]oxy}ethyl)pyrrolidin-1-yl](1,2-oxazol-4-yl)methanone]
1.2	1.9	CC(C)(C)C(=O)N1CCC[C@H]1CCOc1ccc2ncc(-c3cc4ccccc4o3)n2n1 [Example I-46, 1-[(2S)-2-(2-{[3-(1-Benzofuran-2-yl)imidazo[1,2-b]-pyridazin-6-yl]oxy}ethyl)pyrrolidin-1-yl]-2,2-dimethylpropan-1-one]
1.6	2.2	O=C(c1ccno1)N1CCC[C@H]1CCOc1ccc2ncc(-c3cc4ccccc4o3)n2n1 [Example I-47, [(2S)-2-(2-{[3-(1-Benzofuran-2-yl)imidazo[1,2-b]-pyridazin-6-yl]oxy}ethyl)pyrrolidin-1-yl](1,2-oxazol-5-yl)methanone]
1.8	2.3	Cn1cc(C(=O)N2CCC[C@H]2CCOc2ccc3ncc(-c4cc5ccccc5o4)n3n2)cn1 [Example I-48, [(2S)-2-(2-{[3-(1-Benzofuran-2-yl)imidazo[1,2-b]-pyridazin-6-yl]oxy}ethyl)pyrrolidin-1-yl](1-methyl-1H-pyrazol-4-yl)methanone]
1.1	2.4	O=C(c1ccco1)N1CCC[C@H]1CCOc1ccc2ncc(-c3cc4ccccc4o3)n2n1 [Example I-49, [(2S)-2-(2-{[3-(1-Benzofuran-2-yl)imidazo[1,2-b]-pyridazin-6-yl]oxy}ethyl)pyrrolidin-1-yl](furan-2-yl)methanone]
2.4	3.2	Cn1ccc(C(=O)N2CCC[C@H]2CCOc2ccc3ncc(-c4cc5ccccc5o4)n3n2)n1 [Example I-50, [(2S)-2-(2-{[3-(1-Benzofuran-2-yl)imidazo[1,2-b]-pyridazin-6-yl]oxy}ethyl)pyrrolidin-1-yl](1-methyl-1H-pyrazol-3-yl)methanone]
2.1	3.2	O=C(CC1CC1)N1CCC[C@H]1CCOc1ccc2ncc(-c3cc4ccccc4o3)n2n1 [Example I-51, 1-[(2S)-2-(2-{[3-(1-Benzofuran-2-yl)imidazo[1,2-b]-pyridazin-6-yl]oxy}ethyl)pyrrolidin-1-yl]-2-cyclopropylethanone]
1.7	3.4	Cc1nocc1C(=O)N1CCC[C@H]1CCOc1ccc2ncc(-c3cc4ccccc4o3)n2n1 [Example I-52, [(2S)-2-(2-{[3-(1-Benzofuran-2-yl)imidazo[1,2-b]-pyridazin-6-yl]oxy}ethyl)pyrrolidin-1-yl](3-methyl-1,2-oxazol-4-yl)methanone]
2.4	3.5	O=C(C1CCCO1)N1CCC[C@H]1CCOc1ccc2ncc(-c3cc4ccccc4o3)n2n1 (stereo partly drawn) [Example I-53, [(2S)-2-(2-{[3-(1-Benzofuran-2-yl)imidazo[1,2-b]-pyridazin-6-yl]oxy}ethyl)pyrrolidin-1-yl](tetrahydrofuran-2-yl)methanone]
2	3.7	O=C(C1CCC1)N1CCC[C@H]1CCOc1ccc2ncc(-c3cc4ccccc4o3)n2n1 [Example I-54, [(2S)-2-(2-{[3-(1-Benzofuran-2-yl)imidazo[1,2-b]-pyridazin-6-yl]oxy}ethyl)pyrrolidin-1-yl](cyclobutyl)methanone]
2.1	3.8	O=C(c1ccon1)N1CCC[C@H]1CCOc1ccc2ncc(-c3cc4ccccc4o3)n2n1 [Example I-55, [(2S)-2-(2-{[3-(1-Benzofuran-2-yl)imidazo[1,2-b]-pyridazin-6-yl]oxy}ethyl)pyrrolidin-1-yl](1,2-oxazol-3-yl)methanone]
4	3.8	O=C(C1CCCC1)N1CCC[C@H]1CCOc1ccc2ncc(-c3cc4ccccc4o3)n2n1 [Example I-56, [(2S)-2-(2-{[3-(1-Benzofuran-2-yl)imidazo[1,2-b]-pyridazin-6-yl]oxy}ethyl)pyrrolidin-1-yl](cyclopentyl)-methanone]
1.9	3.9	O=C(c1ccsc1)N1CCC[C@H]1CCOc1ccc2ncc(-c3cc4ccccc4o3)n2n1 [Example I-57, [(2S)-2-(2-{[3-(1-Benzofuran-2-yl)imidazo[1,2-b]-pyridazin-6-yl]oxy}ethyl)pyrrolidin-1-yl](thiophen-3-yl)methanone]
2.6	5.2	COCC(=O)N1CCC[C@H]1CCOc1ccc2ncc(-c3cc4ccccc4o3)n2n1 [Example I-58, 1-[(2S)-2-(2-{[3-(1-Benzofuran-2-yl)imidazo[1,2-b]-pyridazin-6-yl]oxy}ethyl)pyrrolidin-1-yl]-2-methoxyethanone]
2.8	5.3	O=C(CO)N1CCC[C@H]1CCOc1ccc2ncc(-c3cc4ccccc4o3)n2n1 [Example I-59, 1-[(2S)-2-(2-{[3-(1-Benzofuran-2-yl)imidazo[1,2-b]-pyridazin-6-yl]oxy}ethyl)pyrrolidin-1-yl]-2-hydroxyethanone]
2.2	5.4	CC(C)CC(=O)N1CCC[C@H]1CCOc1ccc2ncc(-c3cc4ccccc4o3)n2n1 [Example I-60, 1-[(2S)-2-(2-{[3-(1-Benzofuran-2-yl)imidazo[1,2-b]-pyridazin-6-yl]oxy}ethyl)pyrrolidin-1-yl]-3-methylbutan-1-one]
2.9	6.7	O=C(c1ccc[nH]1)N1CCC[C@H]1CCOc1ccc2ncc(-c3cc4ccccc4o3)n2n1 [Example I-61, [(2S)-2-(2-{[3-(1-Benzofuran-2-yl)imidazo[1,2-b]-pyridazin-6-yl]oxy}ethyl)pyrrolidin-1-yl](1H-pyrrol-2-yl)methanone]
3.5	6.8	O=C(c1ccccn1)N1CCC[C@H]1CCOc1ccc2ncc(-c3cc4ccccc4o3)n2n1 [Example I-62, [(2S)-2-(2-{[3-(1-Benzofuran-2-yl)imidazo[1,2-b]-pyridazin-6-yl]oxy}ethyl)pyrrolidin-1-yl](pyridin-2-yl)methanone]
4	10.1	O=C(c1ccc(Cl)cc1)N1CCC[C@H]1CCOc1ccc2ncc(-c3cc4ccccc4o3)n2n1 [Example I-63, [(2S)-2-(2-{[3-(1-Benzofuran-2-yl)imidazo[1,2-b]-pyridazin-6-yl]oxy}ethyl)pyrrolidin-1-yl](4-chlorophenyl)methanone]
4.7	10.5	O=C(NCCOc1ccc2ncc(-c3cc4ccccc4o3)n2n1)c1cccs1 [Example I-64, N-(2-{[3-(1-Benzofuran-2-yl)imidazo[1,2-b]-pyridazin-6-yl]oxy}ethyl)thiophene-2-carboxamide]
5.2	11.8	O=C(NCCOc1ccc2ncc(-c3cc4ccccc4o3)n2n1)c1ccccc1Cl [Example I-65, N-(2-{[3-(1-Benzofuran-2-yl)imidazo[1,2-b]-pyridazin-6-yl]oxy}ethyl)-2-chlorobenzamide]
